From US8796328B2, “TRPV1 antagonists” (AbbVie Inc., priority 2012, dated 2014)

What was measured:
[1] = biological target: T1, human TRPV1 receptor (hTRPV1) (Homo sapiens (Human), UniProt Q8NER1); test: Capsaicin activation assay (FLIPR intracellular Ca2+); format: cell-based; conditions: inhibition of capsaicin-induced intracellular Ca2+ increase; compounds added 3 minutes prior to capsaicin; read-out: hTRPV1 cap. IC50
Procedure: Dulbecco's modified Eagle medium (D-MEM) (with 4.5 mg/mL glucose) and fetal bovine serum were obtained from Hyclone Laboratories, Inc. (Logan, Utah). Dulbecco's phosphate-buffered saline (D-PBS) (with 1 mg/mL glucose and 3.6 mg/l Na pyruvate, without phenol red), L-glutamine, hygromycin B, and Lipofectamine® were obtained from Life Technologies (Grand Island, N.Y.). G418 sulfate was obtained from Calbiochem-Novabiochem Corp. (San Diego, Calif.). Capsaicin (8-methyl-N-vanillyl-6-nonenamide) was obtained from Sigma-Aldrich, Co. (St. Louis, Mo.). Fluo-4 AM (N-[4-[6-[(acetyloxy)methoxy]-2,7-difluoro-3-oxo-3H-xanthen-9-yl]-2-[2-[2-[bis[2-[(acetyloxy)methoxy]-2-oxyethyl]amino]-5-methylphenoxy]ethoxy]phenyl]-N-[2-[(acetyloxy)methoxy]-2-oxyethyl]-glycine, (acetyloxy)methyl ester) was purchased from Molecular Probes (Eugene, Oreg.).
(§1) The cDNAs for the human TRPV1 receptor (hTRPV1) were isolated by reverse transcriptase-polymerase chain reaction (RT-PCR) from human small intestine poly A+ RNA supplied by Clontech (Palo Alto, Calif.) using primers designed surrounding the initiation and termination codons identical to the published sequences (Hayes et al. Pain 2000, 88, 205-215). The resulting cDNA PCR products were subcloned into pCIneo mammalian expression vector (Promega) and fully sequenced using fluorescent dye-terminator reagents (Prism, Perkin-Elmer Applied Biosystems Division) and a Perkin-Elmer Applied Biosystems Model 373 DNA sequencer or Model 310 genetic analyzer. Expression plasmids encoding the hTRPV1 cDNA were transfected individually into 1321N1 human astrocytoma cells using Lipofectamine®. Forty-eight hours after transfection, the neomycin-resistant cells were selected with growth medium containing 800 μg/mL Geneticin (Gibco BRL). Surviving individual colonies were isolated and screened for TRPV1 receptor activity. Cells expressing recombinant homomeric TRPV1 receptors were maintained at 37° C. in D-MEM containing 4 mM L-glutamine, 300 μg/mL G418 (Cal-biochem) and 10% fetal bovine serum under a humidified 5% CO2 atmosphere.
The functional activity of compounds at the TRPV1 receptor was determined by measurement of intracellular Ca^2+ levels ([Ca^2]i) using the Fluorescence Imaging Plate Reader (FLIPR)^TETRA®. All compounds were tested over a 12-point one-third-log concentration range. Compound stocks, 10 mM, were prepared in DMSO, and diluted serially across a 384-well plate using a Bravo BenchCel workstation (Agilent Technologies, Santa Clara, Calif.). A stock concentration of capsaicin (10 mM) was made in DMSO, and diluted in D-PBS to a final concentration of 200 nM (4×). On the day prior to the experiment, recombinant HEK293 cells that stably express either human or rat TRPV1 (hTRPV1-3) were removed from tissue culture flasks and plated in growth medium into black-walled clear-bottom 384-well Biocoat™ poly-D-lysine assay plates (BD Biosciences, Bedford, Mass.) using a Multidrop® dispenser (ThermoScientific, Waltham, Mass.). On the day of the experiment, growth medium was removed, and the no-wash FLIPR® Calcium-4 dye (λEX=470-495 nm, λEM=515-575 nm; Molecular Devices, Sunnyvale, Calif.) was added to each well using the Multidrop® dispenser. Cells were incubated for 90-120 minutes in the dark at room temperature. Test compounds were added to the cells 3 minutes prior to the addition of 200 nM capsaicin (4×), and the final assay volume was 80 μL. Fluorescence readings were made at 1 to 5 second intervals over the course of the experimental run. The peak increase in relative fluorescence units (minus baseline) was calculated, and expressed as a percentage of the 50 nM capsaicin (control) response. Curve-fits of the data were solved using a four-parameter logistic Hill equation in GraphPad Prism® (GraphPad Software, Inc., San Diego, Calif.), and IC50 values (concentration of the test compounds that inhibits 50% of the intracellular Ca^2+ concentration increase induced by capasin) were calculated.

[2] = biological target: T1, human TRPV1 receptor (hTRPV1); test: Acid activation assay (pH 5.0, FLIPR intracellular Ca2+); format: cell-based; conditions: 37.5 μM compound; percentage of the maximal pH 5.0-induced response remaining; read-out: hTRPV1 H+ (max % remain)
Procedure: Dulbecco's modified Eagle's medium (DMEM) with 4.5 mg/mL D-glucose, fetal bovine serum, L-glutamine, and 2-morpholinoethanesulfonic acid (MES) were purchased from Sigma-Aldrich Co. (St. Louis, Mo.). Dulbecco's phosphate-buffered saline (DPBS) with Ca^2+, Mg^2+, and 1 mg/mL D-glucose (pH 7.4), Geneticin®, 0.25% trypsin-1 mM EDTA, and penicillin-streptomycin were purchased from Invitrogen Corp. (Carlsbad, Calif.). The FLIPR® Calcium 4 assay kit was purchased from Molecular Devices (Sunnyvale, Calif.).
as §1, with “DMEM” for “D-MEM”
The functional activity of compounds at the TRPV1 receptor was determined by measurement of intracellular Ca^2+ levels ([Ca^2+]i) using the Fluorescence Imaging Plate Reader (FLIPR)^TETRA®. All compounds were tested over a 12-point one-half-log concentration range. Compound stocks, 10 mM, were prepared in DMSO, and diluted serially across a 384-well plate using a Bravo BenchCel workstation (Agilent Technologies, Santa Clara, Calif.).
On the day of the experiment growth medium was removed, and the no-wash FLIPR®Calcium-4 dye (λEX=470-495 nm, λEM=515-575 nm) was added to each well using the Multidrop® dispenser. Cells were incubated for 90-120 minutes in the dark at 25° C. Test compounds were dissolved in DMSO, and plates were prepared using an Agilent Bravo workstation (Agilent Technologies Inc., Santa Clara, Calif.). Compounds were added to the cells 3 minutes prior to the addition of a pH 5.0 solution. Reagents were delivered at a rate of 40 μL/sec, and the final assay volume was 80 μL. Acidic pH solutions were prepared by titration of DPBS/MES with 1 N HCl. The intensity of the fluorescence was captured and digitally transferred to an interfaced PC.

T1 sequence (Q8NER1 whole entry): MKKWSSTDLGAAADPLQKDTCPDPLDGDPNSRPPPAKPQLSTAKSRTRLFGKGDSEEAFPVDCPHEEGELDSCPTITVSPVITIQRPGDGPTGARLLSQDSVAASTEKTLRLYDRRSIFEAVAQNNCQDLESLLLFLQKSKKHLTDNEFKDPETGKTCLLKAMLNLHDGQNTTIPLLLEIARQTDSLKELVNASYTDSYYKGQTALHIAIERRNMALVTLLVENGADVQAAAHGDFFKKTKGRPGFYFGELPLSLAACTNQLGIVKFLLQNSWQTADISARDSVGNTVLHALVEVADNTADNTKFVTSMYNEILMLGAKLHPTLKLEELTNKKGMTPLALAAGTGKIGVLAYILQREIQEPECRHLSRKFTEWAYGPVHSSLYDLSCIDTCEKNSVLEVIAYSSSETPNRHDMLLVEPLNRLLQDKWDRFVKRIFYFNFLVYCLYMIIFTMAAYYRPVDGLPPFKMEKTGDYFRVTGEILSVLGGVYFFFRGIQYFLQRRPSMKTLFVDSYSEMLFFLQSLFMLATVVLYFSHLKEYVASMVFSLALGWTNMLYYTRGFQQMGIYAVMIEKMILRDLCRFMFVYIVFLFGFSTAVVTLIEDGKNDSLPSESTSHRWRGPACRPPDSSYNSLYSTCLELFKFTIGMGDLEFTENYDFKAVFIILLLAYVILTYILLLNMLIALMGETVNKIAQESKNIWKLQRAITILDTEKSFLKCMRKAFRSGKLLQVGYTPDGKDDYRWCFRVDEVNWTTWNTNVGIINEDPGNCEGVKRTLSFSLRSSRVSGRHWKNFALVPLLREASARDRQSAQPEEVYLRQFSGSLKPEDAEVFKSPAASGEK

| IC50 [1] [µM] | remaining activity at 37.5 µM [2] [%] | Structure (SMILES) |
| --- | --- | --- |
| 32.8 | 82 | CC1(C)C[C@@H](NC(=O)NCc2ccc(NS(C)(=O)=O)c(F)c2)c2ccc(C(F)(F)F)nc2O1 [Example 42, N-{4-[({[(4R)-2,2-dimethyl-7-(trifluoromethyl)-3,4-dihydro-2H-pyrano[2,3-b]pyridin-4-yl]carbamoyl}amino)methyl]-2-fluorophenyl}methanesulfonamide] |
| 0.791 | 60 | CS(=O)(=O)Nc1ccc(CNC(=O)N[C@@H]2CC(CF)(CF)Oc3c2ccc(Cl)c3F)cc1F [Example 20, N-{4-[({[(4R)-7-chloro-8-fluoro-2,2-bis(fluoromethyl)-3,4-dihydro-2H-chromen-4-yl]carbamoyl}amino)methyl]-2-fluorophenyl}methanesulfonamide] |
| 2.15 | 56 | CCC1(CC)C[C@@H](NC(=O)NCc2ccc(NS(C)(=O)=O)c(F)c2)c2cc(F)ccc2O1 [Example 18, N-{4-[({[(4R)-2,2-diethyl-6-fluoro-3,4-dihydro-2H-chromen-4-yl]carbamoyl}amino)methyl]-2-fluorophenyl}methanesulfonamide] |
| 0.109 | 70 | CC1(C)C[C@@H](NC(=O)NCc2ccc(NS(C)(=O)=O)c(F)c2)c2ccc(C(F)(F)F)cc2O1 [Example 9, N-{4-[({[(4R)-2,2-dimethyl-7-(trifluoromethyl)-3,4-dihydro-2H-chromen-4-yl]carbamoyl}amino)methyl]-2-fluorophenyl}methanesulfonamide] |
| > 37.5 | 84 | CS(=O)(=O)Nc1ccc(CNC(=O)N[C@@H]2CCOc3cc(OC(F)(F)F)ccc32)cc1F [Example 26, N-{2-fluoro-4-[({[(4R)-7-(trifluoromethoxy)-3,4-dihydro-2H-chromen-4-yl]carbamoyl}amino)methyl]phenyl}methanesulfonamide] |
| 3.03 | 69 | CS(=O)(=O)Nc1ccc(CNC(=O)N[C@@H]2CC3(CCC3)Oc3ccc(F)cc32)cc1F [Example 17, N-{2-fluoro-4-[({[(4R)-6-fluoro-3,4-dihydrospiro[chromene-2,1′-cyclobutan]-4-yl]carbamoyl}amino)methyl]phenyl}methanesulfonamide] |
| 29.5 | 68 | CS(=O)(=O)Nc1ccc(CNC(=O)N[C@@H]2CC(CF)(CF)Oc3c(F)cccc32)cc1F [Example 28, N-{2-fluoro-4-[({[(4R)-8-fluoro-2,2-bis(fluoromethyl)-3,4-dihydro-2H-chromen-4-yl]carbamoyl}amino)methyl]phenyl}methanesulfonamide] |
| > 37.5 | 87 | CS(=O)(=O)Nc1ccc(CNC(=O)N[C@@H]2CCOc3ccccc32)cc1F [Example 12, N-[4-({[(4R)-3,4-dihydro-2H-chromen-4-ylcarbamoyl]amino}methyl)-2-fluorophenyl]methanesulfonamide] |
| 10.1 | 64 | C[C@@]1(C(F)F)C[C@@H](NC(=O)NCc2ccc(NS(C)(=O)=O)c(F)c2)c2ccccc2O1 [Example 40, N-{4-[({[(2S,4R)-2-(difluoromethyl)-2-methyl-3,4-dihydro-2H-chromen-4-yl]carbamoyl}amino)methyl]-2-fluorophenyl}methanesulfonamide] |
| 0.587 | 58 | C[C@]1(C(F)(F)F)C[C@@H](NC(=O)NCc2ccc(NS(C)(=O)=O)c(F)c2)c2ccccc2O1 [Example 36, N-{2-fluoro-4-[({[(2R,4R)-2-methyl-2-(trifluoromethyl)-3,4-dihydro-2H-chromen-4-yl]carbamoyl}amino)methyl]phenyl}methanesulfonamide] |
| 1.81 | 86 | CS(=O)(=O)Nc1ccc(CNC(=O)N[C@@H]2CCc3cc(Cl)ccc32)cc1F [Example 3, N-{4-[({[(1R)-5-chloro-2,3-dihydro-1H-inden-1-yl]carbamoyl}amino)methyl]-2-fluorophenyl}methanesulfonamide] |
